Measured values taken from PubChem BioAssay (NCI).
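Growth conditions: 96-well plates. Treatment: test compound, 48 hours, 5 concentrations. Analysis: linear interpolation between bracketing concentrations; unreached endpoints set to highest concentration. Abbreviation: GI50, concentration required for 50% inhibition of growth. TGI: total growth inhibition.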

Columns and labels:
Assay in all cases: NCI-60 cell line screen, 48 h
IGROV1 ovarian = test system: IGROV1 ovarian
SF-268 CNS = test system: SF-268 CNS
RXF 393 renal = test system: RXF 393 renal
SW-620 colon = test system: SW-620 colon
SK-MEL-5 melanoma = test system: SK-MEL-5 melanoma
NCI-H226 lung = test system: NCI-H226 lung
HS 578T breast = test system: HS 578T breast
LOX IMVI melanoma = test system: LOX IMVI melanoma
SK-OV-3 ovarian = test system: SK-OV-3 ovarian
OVCAR-8 ovarian = test system: OVCAR-8 ovarian

Structure (SMILES)	GI50 (IGROV1 ovarian) [µM]	TGI (IGROV1 ovarian) [µM]	GI50 (SF-268 CNS) [µM]	TGI (SF-268 CNS) [µM]	GI50 (RXF 393 renal) [µM]	TGI (RXF 393 renal) [µM]	GI50 (SW-620 colon) [µM]	TGI (SW-620 colon) [µM]	GI50 (SK-MEL-5 melanoma) [µM]	TGI (SK-MEL-5 melanoma) [µM]	GI50 (NCI-H226 lung) [µM]	TGI (NCI-H226 lung) [µM]	GI50 (HS 578T breast) [µM]	TGI (HS 578T breast) [µM]	GI50 (LOX IMVI melanoma) [µM]	TGI (LOX IMVI melanoma) [µM]	GI50 (SK-OV-3 ovarian) [µM]	TGI (SK-OV-3 ovarian) [µM]	GI50 (OVCAR-8 ovarian) [µM]	TGI (OVCAR-8 ovarian) [µM]
O=C1c2cccc3c(N4CCN(c5ccc6c7c(cccc57)C(=O)N(CCN5CCNCC5)C6=O)CC4)ccc(c23)C(=O)N1CCN1CCNCC1	6.32	29.4	16.8	70.7	16.8	33	7.64	77.7	16.1	53.4	12.4	29	17.2	44.8	6.57	25.4	25.7	82.9	10.9	41.5
O=S(=O)(Nc1ccc(Cl)c(C(F)(F)F)c1)c1ccc(-c2cnc(C3CC3)o2)cc1	0.507	5.96	1.24	10.8	0.381	1.66	0.175	> 35.5	0.296	1.75	1.41	4.73	0.334	3.48	0.394	3.22	0.919	5.18	1.54	> 36.2
N#CC1=C(N)Oc2c(sc3c(F)cccc23)C1c1ccc([N+](=O)[O-])cc1 (configuration not stated)	0.152	1.56	0.325	1.93	0.191	0.753	0.0723	1.42	0.165	1.24	0.376	1.93	0.194	0.808	0.133	1.09	0.308	2.37	0.258	1.78
Oc1cccc(C2SCc3nc4ccccc4n32)c1 (configuration not stated)				> 100		> 100		> 100		38.2		> 100						> 100		> 100
Fc1cccc(F)c1C1SCc2nc3ccccc3n21 (configuration not stated)		> 100		> 100		> 100		> 100		75.4		> 100				> 100		> 100		> 100
C/C=C(/C)C(=O)OC1C=C(CO)C(=O)C(OC(=O)/C(C)=C\C)C1C(C)C (configuration not stated)	0.96	2.43	1.46	3.05	1.13	2.54			1.33	2.66	2.41	6.01	2.35	6.29	0.604	1.75	2.27	4.48	0.633	2.21
CNC(=O)OCc1nc(S(C)=O)n(C)c1COC(=O)NC (configuration not stated)		> 82.1		> 100		> 100		> 46.4		> 46.4		> 100				> 100		> 73.3		> 100
COCCOC(C)C(/C=N/NC(N)=S)=N/NC(N)=S (configuration not stated)			> 100	> 100	> 100	> 100	> 100	> 100	> 100	> 100	> 100	> 100	> 100	> 100		> 100	> 100	> 100	> 100	> 100
C=C(CO)CC(O)c1ccccc1 (configuration not stated)		> 100		> 100		> 100		> 100		> 100		> 100				> 100		> 100		> 100
CSc1s[s+]c(SC)c1[O-]		> 100		55.8		41.4		31.7		> 100		> 100						> 100		43.7
COc1ccc(/C=N/NC(=O)O)cc1		> 100				> 100		> 100		> 100				> 100		> 100		> 100		
Cc1ccccc1NC(=O)C(=O)Cc1nc2ccccc2s1		> 100		> 100		> 100		> 100		> 100		> 100				> 100		> 100		> 100
Clc1ccc2c(NCCCN3CCN(c4nc(-n5ccnc5)nc5ccccc45)CC3)ccnc2c1	2.96	23.7			1.67	3.34			1.74	3.17	> 100	> 100	2.28	19.2	1.84	3.69	> 47.3	> 62.8		
CCCCCN(CCCCC)C(=O)[C@@H](CCC(=O)OCc1ccccc1)NC(=O)c1cc2ccccc2[nH]1		> 100		> 100		> 100		> 100								> 100		> 100		> 100
CN(C)CC1(C)CC/C(=C\c2ccc3c(c2)OCO3)C1=O (configuration not stated)		> 100		> 100		> 100		> 100		> 100		> 100				> 100				> 100
N/C(=N\C(=S)N1CCCCC1)N1CCCCC1		> 100		> 100		> 100		> 100		> 100		> 100				> 100		> 100		> 100
COc1ccc2cc(C(=O)/C=C/c3ccc(OC)c(OC)c3)ccc2c1	10.5	78.2	19.2	55.1			4.21	27.1	2.82	16.6					3.38	> 100	32.4	> 100	14	49.7
COc1ccc(OC)c(CCc2cc(OC)c(OC)cc2C)c1		> 100		> 100				> 100		> 100								98.4		> 100
Cc1ccc(NC(=O)SCCC(=O)O)cc1NC(=O)SCCC(=O)O		> 100		> 100		> 100		> 100				> 100				> 100				> 100
O=C1OC(=O)C2C3CCC(O3)C12 (configuration not stated)		> 100		> 100		> 100		> 100		> 100		> 100						> 100		> 100
CC1=CC(C)C(O)C(C)/C=C/C(O)C/C=C(/C)C(=O)CC(O)C(C)\C=C/C=C/C=C\C(=O)NC2=C(O)c3cc(C)c(O)c(c3C(=O)C2=O)C1=O (configuration not stated)		> 100		> 100				> 100		> 100				> 100		> 100				> 100
CN/N=C(\C)CC(=O)Nc1cccc(Cl)c1C		> 100		> 100		> 100				> 100		> 100				> 100		> 100		> 100

Structure (SMILES)	GI50 (IGROV1 ovarian) [µM]	TGI (IGROV1 ovarian) [µM]	GI50 (SF-268 CNS) [µM]	TGI (SF-268 CNS) [µM]	GI50 (RXF 393 renal) [µM]	TGI (RXF 393 renal) [µM]	GI50 (SW-620 colon) [µM]	TGI (SW-620 colon) [µM]	GI50 (SK-MEL-5 melanoma) [µM]	TGI (SK-MEL-5 melanoma) [µM]	GI50 (NCI-H226 lung) [µM]	TGI (NCI-H226 lung) [µM]	GI50 (HS 578T breast) [µM]	TGI (HS 578T breast) [µM]	GI50 (LOX IMVI melanoma) [µM]	TGI (LOX IMVI melanoma) [µM]	GI50 (SK-OV-3 ovarian) [µM]	TGI (SK-OV-3 ovarian) [µM]	GI50 (OVCAR-8 ovarian) [µM]	TGI (OVCAR-8 ovarian) [µM]
COC(=O)C(C(=O)C(=O)Nc1ccccc1OC)c1csc(-n2nc(-c3ccccc3)cc2-c2ccccc2)n1 (configuration not stated)		> 100		> 100		> 100		> 100				> 100				> 100		> 100		> 100
COC1OC(C)C(OC(=O)C(C)(C)C)C(C)(O)C1O (configuration not stated)		> 100		> 100		> 100		> 100		> 100						> 100				> 100
CC1CC2C3CC(F)C4=CC(=O)C=CC4(C)C3(F)C(O)CC2(C)C1(O)C(=O)CO (configuration not stated)		> 100		> 100		> 100		> 100		> 100		> 100				> 100		> 100		
O=C(NCCNCCO)c1ccc2oc3cc4ccccc4c(=O)n3c2c1	5.77	17.7	7.42	18.5	9.96	21.1	5.93	14.7	9.26	16.4					6.72	14	8.66	20.4	8.33	25.5
COc1ccc(-c2c(N)[n+]([O-])c3cc(C)c(C)cc3[n+]2[O-])cc1OC		> 100		> 100				> 100		74.3		> 100				> 100		> 100		> 100
O=C1C=C(Br)C(=O)C(Br)=C1		> 100		> 100		> 100		> 100		> 100		> 100				> 31.6		> 100		> 100
O=C(O)C1Cc2nc[nH]c2CN1 (configuration not stated)		> 100		> 100				> 100		> 100		> 100				> 100		> 100		> 100
CC(=O)N1c2ccccc2C23CCN4CC5=CCOC(O)C(C5CC42)C13 (configuration not stated)		> 100		> 100				> 100		> 100		> 100		> 100		> 100		> 100		> 100
COc1cc2c(cc1OC)-c1c(cc(OC)c(OC)c1OC)C2=O		> 100		> 100		> 100		> 100		> 100		> 100				> 100		> 100		> 100
CC(C)OCN1COCN=C1NC#N		> 100		> 100		> 100		34.8		> 100		> 100						> 100		> 100
O=C1CCC(=O)c2cc(Br)ccc2N1		> 100		> 100		> 100		> 100		> 100		> 100				> 100		> 100		> 100
O=C(Nc1cc(C(F)(F)F)ccc1Cl)C(=O)C(C(=O)c1ccc2ccccc2c1)C1OC(=O)c2ccccc21 (configuration not stated)		> 92.5		52.8		8.11		37.8		22.5		3.36				25.7		> 100		24.8
N#Cc1c(NC(=O)CCC(=O)O)ccc2ccccc12		> 100		> 100		> 100		> 100		> 100		> 100		> 100				> 100		> 100
C=CC1=C(C)C2=NC1=CC1=NC(=C(CC)/C1=C/O)C=C1C=C3C(=O)C(C(=O)OC)C(=C4NC(=C2)C(C)C4CCC(=O)OC/C=C(\C)CCCC(C)CCCC(C)CCCC(C)C)C3=N1 (configuration not stated) (tested in a mixture with another compound)		> 100		> 100				> 100		> 100		> 100		> 100		> 100		> 100		> 100
COc1ccc(C(=O)C(C(=O)C(=O)Nc2nc3ccc(OC)cc3s2)c2ccc(OC)cc2)cc1 (configuration not stated)		> 100		> 100				> 100		> 100		> 100				> 100		> 100		> 100
CC(NC1CCC[C@H]1O)c1ccccc1 (mixture of isomers)		> 100		> 100		> 100		> 100		> 100		> 100				> 100		> 100		> 100
C=C(C)C1CC[C@]2(C(=O)O)CCC3(C)[C@H](CCC4[C@@]5(C)CC[C@H](OC6OC(CO)C(O)C6OC6OC(C)C(O)C(O)C6O)[C@@](C)(CO)C5CC[C@]43C)C12 (some centres not stated)		> 100		> 100		> 100		> 100		> 100		> 100				> 100				> 100
COC(=O)C1CCc2c(OC)ccc(OC)c2C1=O (configuration not stated)		> 100						> 100		> 100						> 100		> 100		> 100
COc1cc(C2C(C(=O)O)=C(C)Oc3cc4c(cc32)OCO4)cc(OC)c1OC (configuration not stated)		> 100				> 100		> 100		> 100						> 100		91.2		> 100
CC(=O)Nc1ccc(/C=c2\sc3nnc(/C=C/c4ccccc4)n3c2=O)cc1		> 50		> 50		> 50		> 50		> 50		> 50				> 50		> 50		> 50
COCCN1C2=CCCCC2=Nc2c(N)nc(N)nc21		> 100		> 100		> 100				> 100		> 100				> 100		> 100		> 100
